Data as given in ChEMBL document CHEMBL1201861, “Genomics of Drug Sensitity in Cancer screening data, Wellcome Trust Sanger Institute”.

Experiments:
Assay in all cases: cells
HCC2157 = assay type: functional, cell-based, Homo sapiens; conditions: Homo sapiens, HCC2157;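 further: growth inhibition of the cancer cell line, read out as cell viability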
Description: SANGER: Inhibition of human HCC2157 cell growth in a cell viability assay.

NCI-H23 = assay type: functional, cell-based, Homo sapiens; conditions: Homo sapiens, NCI-H23;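 further: cell viability assay measuring growth inhibition of NCI-H23 cells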
Description: SANGER: Inhibition of human NCI-H23 cell growth in a cell viability assay.

NH-12 = assay type: functional, cell-based, Homo sapiens; conditions: Homo sapiens, NH-12;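 further: growth inhibition of NH-12 cells, read out with a cell viability assay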
Description: SANGER: Inhibition of human NH-12 cell growth in a cell viability assay.

697 = assay type: functional, cell-based, Homo sapiens; conditions: Homo sapiens
LS-513 = assay type: functional, cell-based, Homo sapiens; conditions: Homo sapiens, LS-513
Description: SANGER: Inhibition of human LS-513 cell growth in a cell viability assay.

LOX IMVI = assay type: functional, cell-based, Homo sapiens; conditions: Homo sapiens, LOX IMVI
Description: SANGER: Inhibition of human LOXIMVI cell growth in a cell viability assay.

IST-SL1 = assay type: functional, cell-based, Homo sapiens; conditions: Homo sapiens, IST-SL1;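 further: growth inhibition of human IST-SL1 cells, read out with a cell viability assay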
Description: SANGER: Inhibition of human IST-SL1 cell growth in a cell viability assay.

MZ7-mel = assay type: functional, cell-based, Homo sapiens; conditions: Homo sapiens, MZ7-mel;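 further: growth inhibition of human MZ7-mel cells, measured by a cell viability assay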
Description: SANGER: Inhibition of human MZ7-mel cell growth in a cell viability assay.

HH = assay type: functional, cell-based, Homo sapiens; conditions: Homo sapiens, HH
Description: SANGER: Inhibition of human HH cell growth in a cell viability assay.

MHH-PREB-1 = assay type: functional, cell-based, Homo sapiens; conditions: Homo sapiens, MHH-PREB-1;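 further: cell viability assay measuring inhibition of proliferation of human MHH-PREB-1 cells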
Description: SANGER: Inhibition of human MHH-PREB-1 cell growth in a cell viability assay.

ONS-76 = assay type: functional, cell-based, Homo sapiens; conditions: Homo sapiens, ONS-76;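 further: growth inhibition of human ONS-76 cells, read out with a cell viability assay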
Description: SANGER: Inhibition of human ONS-76 cell growth in a cell viability assay.

DU-4475 = assay type: functional, cell-based, Homo sapiens; conditions: Homo sapiens, DU-4475
Description: SANGER: Inhibition of human DU-4475 cell growth in a cell viability assay.

HD-MY-Z = assay type: functional, cell-based, Homo sapiens; conditions: Homo sapiens, HD-MY-Z;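 further: growth inhibition of HD-MY-Z cells, read out with a cell viability assay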
Description: SANGER: Inhibition of human HD-MY-Z cell growth in a cell viability assay.

OS-RC-2 = assay type: functional, cell-based, Homo sapiens; conditions: Homo sapiens, OS-RC-2;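 further: growth inhibition of human OS-RC-2 cells, measured by a cell viability assay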
Description: SANGER: Inhibition of human OS-RC-2 cell growth in a cell viability assay.

L-363 = assay type: functional, cell-based, Homo sapiens; conditions: Homo sapiens, L-363
NCI-H1155 = assay type: functional, cell-based, Homo sapiens; conditions: Homo sapiens, NCI-H1155;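 further: cell growth inhibition measured by a viability assay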
Description: SANGER: Inhibition of human NCI-H1155 cell growth in a cell viability assay.

HCE-T = assay type: functional, cell-based, Homo sapiens; conditions: Homo sapiens, HCE-T;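 further: cell viability assay read-out, reporting inhibition of HCE-T cell growth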
Description: SANGER: Inhibition of human HCE-T cell growth in a cell viability assay.

NCI-H1299 = assay type: functional, cell-based; conditions: Homo sapiens;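 further: growth inhibition of human NCI-H1299 cells, read out by a cell viability assay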
Description: SANGER: Inhibition of human NCI-H1299 cell growth in a cell viability assay.

8-MG-BA = assay type: functional, cell-based, Homo sapiens; conditions: Homo sapiens, 8-MG-BA;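 further: growth inhibition of 8-MG-BA cells, read out with a cell viability assay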
Description: SANGER: Inhibition of human 8-MG-BA cell growth in a cell viability assay.

IA-LM = assay type: functional, cell-based; conditions: Homo sapiens;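 further: cell viability assay measuring growth inhibition of human IA-LM cells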
Description: SANGER: Inhibition of human IA-LM cell growth in a cell viability assay.

MV4-11 = assay type: functional, cell-based, Homo sapiens, MV-4-11; conditions: Homo sapiens, MV4-11;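 further: cell viability readout measuring growth inhibition of human MV-4-11 cells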
Description: SANGER: Inhibition of human MV-4-11 cell growth in a cell viability assay.

JAR = assay type: functional, cell-based, Homo sapiens; conditions: Homo sapiens, JAR;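 further: growth inhibition of human JAR cells determined with a cell viability assay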
Description: SANGER: Inhibition of human JAR cell growth in a cell viability assay.

A498 = assay type: functional, cell-based, Homo sapiens; conditions: Homo sapiens, A498;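 further: growth inhibition of human A498 cells, read out with a cell viability assay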
Description: SANGER: Inhibition of human A498 cell growth in a cell viability assay.

BB30-HNC = assay type: functional, cell-based, Homo sapiens; conditions: Homo sapiens, BB30-HNC;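 further: growth inhibition of the cultured cell line, read out by a cell viability assay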
Description: SANGER: Inhibition of human BB30-HNC cell growth in a cell viability assay.

RPMI-8866 = assay type: functional, cell-based, Homo sapiens; conditions: Homo sapiens, RPMI-8866
ACN = assay type: functional, cell-based, Homo sapiens; conditions: Homo sapiens, ACN;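 further: growth inhibition of the human ACN cell line, read out via cell viability testing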
Description: SANGER: Inhibition of human ACN cell growth in a cell viability assay.

ES4 = assay type: functional, cell-based, Homo sapiens; conditions: Homo sapiens, ES4;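 further: growth inhibition of human ES4 cells, read out by a cell viability assay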
LAMA-84 = assay type: functional, cell-based, Homo sapiens; conditions: Homo sapiens, LAMA-84;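 further: growth inhibition of LAMA-84 cells, read out with a cell viability assay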
SK-N-FI = assay type: functional, cell-based, Homo sapiens; conditions: Homo sapiens, SK-N-FI;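 further: cell viability assay measuring growth inhibition of human SK-N-FI cells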
Description: SANGER: Inhibition of human SK-N-FI cell growth in a cell viability assay.

LB2241-RCC = assay type: functional, cell-based, Homo sapiens; conditions: Homo sapiens, LB2241-RCC;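 further: cell viability assay measuring how strongly the cultured human renal carcinoma line is prevented from growing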
NCI-H226 = assay type: functional, cell-based, Homo sapiens; conditions: Homo sapiens, NCI-H226;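 further: cell viability read-out used to gauge growth inhibition of the cells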
Description: SANGER: Inhibition of human NCI-H226 cell growth in a cell viability assay.

C8166 = assay type: functional, cell-based, Homo sapiens; conditions: Homo sapiens, C8166;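 further: growth inhibition of human C8166 cells measured by a cell viability assay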
Description: SANGER: Inhibition of human C8166 cell growth in a cell viability assay.

DOHH-2 = assay type: functional, cell-based, Homo sapiens; conditions: Homo sapiens, DOHH-2;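 further: growth inhibition of human DOHH-2 cells, read out with a cell viability assay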
Description: SANGER: Inhibition of human DOHH-2 cell growth in a cell viability assay.

SK-UT-1 = assay type: functional, cell-based, Homo sapiens; conditions: Homo sapiens, SK-UT-1;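 further: growth inhibition of SK-UT-1 cells, measured by a cell viability assay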
Description: SANGER: Inhibition of human SK-UT-1 cell growth in a cell viability assay.

SCC-15 = assay type: functional, cell-based, Homo sapiens; conditions: Homo sapiens, SCC-15;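 further: growth inhibition of SCC-15 cells, read out with a cell viability assay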
SBC-1 = assay type: functional, cell-based, Homo sapiens; conditions: Homo sapiens, SBC-1;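 further: cell viability assay measuring growth inhibition of the SBC-1 cell line, IC50 being the concentration that halves growth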
Description: SANGER: Inhibition of human SBC-1 cell growth in a cell viability assay.

SNU-5 = assay type: functional, cell-based, Homo sapiens; conditions: Homo sapiens, SNU-5;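 further: cell viability readout used to measure growth inhibition in human NCI-SNU-5 cells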
Description: SANGER: Inhibition of human NCI-SNU-5 cell growth in a cell viability assay.

CCRF-CEM = assay type: functional, cell-based, Homo sapiens; conditions: Homo sapiens, CCRF-CEM;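 further: inhibition of CCRF-CEM cell growth, measured by a cell viability assay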
Description: SANGER: Inhibition of human CCRF-CEM cell growth in a cell viability assay.

no-10 = assay type: functional, cell-based, Homo sapiens; conditions: Homo sapiens;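 further: growth inhibition of no-10 cells, read out with a cell viability assay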
JVM-2 = assay type: functional, cell-based, Homo sapiens; conditions: Homo sapiens, JVM-2;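 further: growth inhibition of JVM-2 cells determined by a cell viability assay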
Description: SANGER: Inhibition of human JVM-2 cell growth in a cell viability assay.

IST-MES1 = assay type: functional, cell-based, Homo sapiens; conditions: Homo sapiens, IST-MES1;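 further: growth inhibition of IST-MES1 cells, measured with a cell viability assay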
Description: SANGER: Inhibition of human IST-MES1 cell growth in a cell viability assay.

MONO-MAC-6 = assay type: functional, cell-based, Homo sapiens; conditions: Homo sapiens, MONO-MAC-6;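 further: cell viability assay measuring growth inhibition of human MONO-MAC-6 cells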
Description: SANGER: Inhibition of human MONO-MAC-6 cell growth in a cell viability assay.

SK-PN-DW = assay type: functional, cell-based, Homo sapiens; conditions: Homo sapiens, SK-PN-DW;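 further: growth inhibition measured with a viability assay on these cells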
Description: SANGER: Inhibition of human SK-PN-DW cell growth in a cell viability assay.

KM-H2 = assay type: functional, cell-based, Homo sapiens; conditions: Homo sapiens, KM-H2;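 further: growth inhibition of KM-H2 cells, read out by a cell viability assay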
Description: SANGER: Inhibition of human KM-H2 cell growth in a cell viability assay.

NCI-H720 = assay type: functional, cell-based, Homo sapiens; conditions: Homo sapiens, NCI-H720;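 further: growth inhibition of human NCI-H720 cells determined by a cell viability assay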
Description: SANGER: Inhibition of human NCI-H720 cell growth in a cell viability assay.

Mo = assay type: functional, cell-based, Homo sapiens; conditions: Homo sapiens, Mo
Description: SANGER: Inhibition of human Mo-T cell growth in a cell viability assay.

KURAMOCHI = assay type: functional, cell-based, Homo sapiens; conditions: Homo sapiens, KURAMOCHI;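 further: growth inhibition of KURAMOCHI cells, read out with a cell viability assay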
Description: SANGER: Inhibition of human KURAMOCHI cell growth in a cell viability assay.

NCI-H1650 = assay type: functional, cell-based, Homo sapiens; conditions: Homo sapiens, NCI-H1650;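 further: growth inhibition of human NCI-H1650 cells measured by a cell viability assay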
Description: SANGER: Inhibition of human NCI-H1650 cell growth in a cell viability assay.

NCI-N87 = assay type: functional, cell-based; conditions: Homo sapiens;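 further: growth inhibition of human NCI-N87 cells, read out with a cell viability assay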
Description: SANGER: Inhibition of human NCI-N87 cell growth in a cell viability assay.

Question: Which results are given for `Cc1ccc(NC(=O)c2ccc(CN3CCN(C)CC3)cc2)cc1Nc1nccc(-c2cccnc2)n1` [IMATINIB]?
Answer: IC50 (HCC2157): > 2 µM; IC50 (NCI-H23): > 2 µM; IC50 (NH-12): > 2 µM; IC50 697: > 2 µM; IC50 (LS-513): > 2 µM; IC50 (LOX IMVI): > 2 µM; IC50 (IST-SL1): > 2 µM; IC50 (MZ7-mel): > 2 µM; IC50 (HH): > 2 µM; IC50 (MHH-PREB-1): > 2 µM; IC50 (ONS-76): > 2 µM; IC50 (DU-4475): > 2 µM; IC50 (HD-MY-Z): > 2 µM; IC50 (OS-RC-2): > 2 µM; IC50 (L-363): > 2 µM; IC50 (NCI-H1155): > 2 µM; IC50 (HCE-T): > 2 µM; IC50 (NCI-H1299): > 2 µM; IC50 (8-MG-BA): > 2 µM; IC50 (IA-LM): > 2 µM; IC50 (MV4-11): > 2 µM; IC50 (JAR): > 2 µM; IC50 (A498): > 2 µM; IC50 (BB30-HNC): > 2 µM; IC50 (RPMI-8866): > 2 µM; IC50 (ACN): > 2 µM; IC50 (ES4): > 2 µM; IC50 (LAMA-84): 0.073 µM; IC50 (SK-N-FI): > 2 µM; IC50 (LB2241-RCC): > 2 µM; IC50 (NCI-H226): > 2 µM; IC50 (C8166): > 2 µM; IC50 (DOHH-2): > 2 µM; IC50 (SK-UT-1): > 2 µM; IC50 (SCC-15): > 2 µM; IC50 (SBC-1): > 2 µM; IC50 (SNU-5): > 2 µM; IC50 (CCRF-CEM): > 2 µM; IC50 (no-10): > 2 µM; IC50 (JVM-2): > 2 µM; IC50 (IST-MES1): > 2 µM; IC50 (MONO-MAC-6): > 2 µM; IC50 (SK-PN-DW): > 2 µM; IC50 (KM-H2): > 2 µM; IC50 (NCI-H720): > 2 µM; IC50 (Mo): > 2 µM

Question: What does the source list for `Nc1ccccc1NC(=O)c1ccc(CNC(=O)OCc2cccnc2)cc1` [ENTINOSTAT]?
Answer: IC50 (HCC2157): 1.43 µM; IC50 (NCI-H23): > 5 µM; IC50 (NH-12): > 5 µM; IC50 697: 0.0998 µM; IC50 (LS-513): 0.445 µM; IC50 (LOX IMVI): 1.93 µM; IC50 (IST-SL1): 0.773 µM; IC50 (MZ7-mel): 0.561 µM; IC50 (KURAMOCHI): 1.77 µM; IC50 (HH): 0.99 µM; IC50 (MHH-PREB-1): 0.607 µM; IC50 (ONS-76): 0.582 µM; IC50 (DU-4475): 0.587 µM; IC50 (HD-MY-Z): 1.75 µM; IC50 (OS-RC-2): 0.968 µM; IC50 (L-363): 0.567 µM; IC50 (NCI-H1155): 3.71 µM; IC50 (HCE-T): 0.872 µM; IC50 (NCI-H1299): > 5 µM; IC50 (8-MG-BA): 1.29 µM; IC50 (MV4-11): 0.53 µM; IC50 (JAR): 0.878 µM; IC50 (BB30-HNC): 1.39 µM; IC50 (RPMI-8866): 1.6 µM; IC50 (NCI-H1650): > 5 µM; IC50 (ACN): 0.51 µM; IC50 (ES4): 0.859 µM; IC50 (LAMA-84): 0.776 µM; IC50 (SK-N-FI): 3.45 µM; IC50 (LB2241-RCC): 1.29 µM; IC50 (NCI-H226): > 5 µM; IC50 (C8166): > 5 µM; IC50 (DOHH-2): > 5 µM; IC50 (SK-UT-1): 1.79 µM; IC50 (SBC-1): 1.43 µM; IC50 (SNU-5): > 5 µM; IC50 (CCRF-CEM): 0.747 µM; IC50 (no-10): 1.23 µM; IC50 (JVM-2): > 5 µM; IC50 (IST-MES1): 3.18 µM; IC50 (MONO-MAC-6): 0.388 µM; IC50 (SK-PN-DW): 0.978 µM; IC50 (KM-H2): 1.57 µM; IC50 (NCI-H720): 2.17 µM; IC50 (Mo): > 5 µM

Question: For `CC(C)C[C@H](NC(=O)[C@H](Cc1ccccc1)NC(=O)c1cnccn1)B(O)O` [BORTEZOMIB], which IC50 (HCC2157) is on record?
Answer: > 0.02 µM

Question: What about the IC50 (NCI-H23) of the same compound?
Answer: 0.0121 µM

Question: What about the IC50 (NH-12) of the same compound?
Answer: > 0.02 µM

Question: What about the IC50 (NCI-N87) of the same compound?
Answer: > 0.02 µM

Question: And the IC50 697?
Answer: 0.00199 µM

Question: What about the IC50 (LS-513) of the same compound?
Answer: 0.000739 µM

Question: And the IC50 (LOX IMVI)?
Answer: 0.0035 µM

Question: What about the IC50 (IST-SL1) of the same compound?
Answer: 0.00468 µM

Question: What about the IC50 (MZ7-mel) of the same compound?
Answer: 0.00109 µM

Question: And the IC50 (KURAMOCHI)?
Answer: 0.00172 µM

Question: And the IC50 (HH)?
Answer: 0.00213 µM

Question: And the IC50 (MHH-PREB-1)?
Answer: 0.00486 µM

Question: What about the IC50 (ONS-76) of the same compound?
Answer: 0.00033 µM

Question: And the IC50 (DU-4475)?
Answer: 0.00136 µM

Question: What about the IC50 (HD-MY-Z) of the same compound?
Answer: 0.00393 µM

Question: And the IC50 (OS-RC-2)?
Answer: 0.00044 µM

Question: What about the IC50 (L-363) of the same compound?
Answer: 0.0077 µM

Question: What about the IC50 (NCI-H1155) of the same compound?
Answer: > 0.02 µM

Question: What about the IC50 (HCE-T) of the same compound?
Answer: 0.000439 µM

Question: And the IC50 (NCI-H1299)?
Answer: > 0.02 µM

Question: And the IC50 (8-MG-BA)?
Answer: 0.00025 µM

Question: What about the IC50 (MV4-11) of the same compound?
Answer: 0.00182 µM

Question: What about the IC50 (JAR) of the same compound?
Answer: 0.0161 µM

Question: What about the IC50 (BB30-HNC) of the same compound?
Answer: 0.000335 µM

Question: What about the IC50 (RPMI-8866) of the same compound?
Answer: > 0.02 µM

Question: What about the IC50 (NCI-H1650) of the same compound?
Answer: > 0.02 µM

Question: And the IC50 (ACN)?
Answer: 0.000417 µM

Question: And the IC50 (ES4)?
Answer: 0.00216 µM

Question: And the IC50 (LAMA-84)?
Answer: 0.00349 µM

Question: And the IC50 (SK-N-FI)?
Answer: > 0.02 µM

Question: What about the IC50 (LB2241-RCC) of the same compound?
Answer: 0.000804 µM

Question: And the IC50 (NCI-H226)?
Answer: > 0.02 µM

Question: What about the IC50 (C8166) of the same compound?
Answer: > 0.02 µM

Question: What about the IC50 (DOHH-2) of the same compound?
Answer: > 0.02 µM

Question: What about the IC50 (SK-UT-1) of the same compound?
Answer: 0.000163 µM

Question: And the IC50 (SCC-15)?
Answer: > 0.02 µM

Question: And the IC50 (SBC-1)?
Answer: 0.00501 µM

Question: What about the IC50 (SNU-5) of the same compound?
Answer: 0.00517 µM

Question: What about the IC50 (CCRF-CEM) of the same compound?
Answer: 0.00113 µM

Question: What about the IC50 (no-10) of the same compound?
Answer: 0.00021 µM

Question: And the IC50 (JVM-2)?
Answer: 0.00728 µM

Question: And the IC50 (IST-MES1)?
Answer: > 0.02 µM

Question: And the IC50 (MONO-MAC-6)?
Answer: 0.0031 µM

Question: And the IC50 (SK-PN-DW)?
Answer: 0.00314 µM

Question: What about the IC50 (KM-H2) of the same compound?
Answer: > 0.02 µM

Question: And the IC50 (NCI-H720)?
Answer: > 0.02 µM

Question: What about the IC50 (Mo) of the same compound?
Answer: 0.00274 µM
